Measured values: ChEMBL document CHEMBL1123690, “Redox chemistry of the 9-anilinoacridine class of antitumor agents” (J Med Chem, 1987)

Key:
L1210 [1] = assay: Dose of the drug (mol /kg) providing a 50% life extension in L1210 assays when given at qd 1-5 schedule.; assay type: functional, Mus musculus
L1210 [2] = assay: Inhibitory concentration to reduce the growth of L1210 cells by 50% after 70 hr.; assay type: functional, cell-based; conditions: Mus musculus, L1210, 70 h

SMILES | IC50 (L1210 [2]) [nM] | Log 1/D50 (L1210 [1])
COP(=O)(Nc1ccc(Nc2c3ccccc3nc3ccccc23)cc1)OC | 15 | 4.46
CCNc1ccc(Nc2c3ccccc3nc3ccccc23)cc1 | 250 | –
O=S(=O)(Nc1ccc(Nc2c3ccccc3nc3ccccc23)cc1)c1ccccc1 | 3.5 | –
COC(=O)Nc1ccc(Nc2c3ccccc3nc3ccccc23)cc1 | 60 | –
O=C(Nc1ccc(Nc2c3ccccc3nc3ccccc23)cc1)c1ccccc1 | 20 | –
CS(=O)(=O)Nc1ccc(Nc2c3ccccc3nc3ccccc23)cc1 | 35 | –
CC(=O)Nc1ccc(Nc2c3ccccc3nc3ccccc23)cc1 | 100 | –

Further lines, with some results ahead:

IC50 (L1210 [2]) [nM] | SMILES | Log 1/D50 (L1210 [1])
180 | CNc1ccc(Nc2c3ccccc3nc3ccccc23)cc1 | –
600 | CN(C)c1ccc(Nc2c3ccccc3nc3ccccc23)cc1 | –
250 | Oc1ccc(Nc2c3ccccc3nc3ccccc23)cc1 | –
350 | Nc1ccc(Nc2c3ccccc3nc3ccccc23)cc1 | –
